# Measurements as given in publication PMC12752627, “Discovery of a Potent and Selective TEAD Degrader with Durable Degradation Activity” (Advanced Science, 2025).
# Like-named read-outs stand apart in the source and are kept apart here.
# Experiments:
# [1] = system: NCI-H226 cells; test: DIA proteomics in NCI-H226 cells; assay type: cell-based, Homo sapiens; settings: 100 nM, 24 h
# Description: Cells were seeded in 6‐well plates at 1 × 10⁶ cells well^−1 and treated with 100 nM KG‐FP‐003 (n = 3). After 24 h incubation, cells were harvested, washed with ice‐cold PBS, and stored at −80 °C. Cell pellets were lysed in 4 volumes of lysis buffer (1% SDS, 1% protease inhibitor cocktail) followed by 3 min sonication on ice. After centrifugation (12 000 g, 10 min, 4 °C), supernatants were collected for BCA protein quantification. Proteins were reduced with 5 mM DTT (56 °C, 30 min), alkylated with 11 mM iodoacetamide (RT, dark, 15 min), and diluted with 200 mM TEAB to reduce urea concentration below 2 M. Trypsin digestion (1:50 enzyme‐to‐protein ratio) was performed at 37 °C overnight followed by additional 4 h digestion. Peptides were desalted using Strata‐X SPE columns. […] MS analysis was performed on a timsTOF Pro mass spectrometer in dia‐PASEF mode (ESI voltage: 1.75 kV; scan range: 300–1500 m z^−1). DIA data were processed using DIA‐NN (v1.8) against the Homo_sapiens_9606_SP_20 231 220.fasta database (20429 entries) with reversed decoys, using trypsin as the cleavage enzyme. Fixed modifications included N‐terminal methionine excision and carbamidomethylation of cysteine, with FDR set at <1%.
# [2] = target: T1, TEAD1 (Homo sapiens, UniProt P28347+Q96SW2); test: Immunoblot of TEAD1 degradation in TEAD1-mNeonGreen fusion NCI-H1299 cells; assay type: cell-based
# T1 construct: endogenous in cells; host or cells: NCI-H1299 (TEAD1-mNeonGreen knock-in)
# Description: Immunoblotting was carried out as previously described.^[ [29] ^] Cells were seeded in 6‐well plates (Yeasen, #84011ES50) at a density of 1 million cells per well. The following day, cells were treated with compounds at the required concentrations, with the DMSO concentration kept below 0.4‰ to prevent toxic effects on the cells. The collected cell pellets were washed three times with PBS (Meilunbio, #MA0015) and resuspended in 120 µL of RIPA lysis buffer (Meilunbio, #MA0151) containing 1% protease inhibitor (Meilunbio, #MB2678‐2). The cells were then sonicated on ice and centrifuged at 12 000 rpm for 15 min at 4 °C to remove cellular debris. Protein concentrations were determined using the BCA Protein Quantification Kit (Meilunbio, #MA0082‐1). The protein samples were normalized, boiled at 99 °C for 10 min, and then subjected to electrophoresis on a 10% SDS‐PAGE gel. The separated protein bands were transferred to nitrocellulose membranes, blocked with TBST containing 5% BSA, and incubated with the indicated primary antibodies. Finally, the blots were imaged using an Amersham Typhoon NIR imager.
# [3] = system: MSTO-211H cells; test: Cell viability assay (CTG, 72 h) MSTO-211H; assay type: cell-based; settings: Homo sapiens
# Description: (§1) Cells were seeded at a density of 1000 cells per well in 96‐well flat‐bottomed cell culture plates and cultured overnight at 37 °C with 5% CO2 to allow for cell attachment. The following day, different concentrations of compounds were added using an I‐DOT dispenser. After 72 h, 25 µL of CellTiter‐Meiluncell Luminescent Cell Viability Reagent (Meilunbio, #PWL111‐2) was added and incubated for 15 min at room temperature. Luminescence signals were then measured using an Envision plate reader (Revvity). Data were analyzed using GraphPad Prism 9.5 software.^[ [30] ^]
# [4] = system: NCI-H226 cells; test: Cell viability assay (CTG, 72 h) NCI-H226; assay type: cell-based; settings: Homo sapiens, NCI-H226, 72 h; 3-day antiproliferation; read-out: IC50 (nM ± SD), NCI-H226
# Description: as §1
# [5] = system: ES2 cells; test: Cell viability assay (CTG, 72 h) ES2; assay type: cell-based; settings: Homo sapiens, ES-2, 72 h, 3-day compound treatment
# Description: as §1
# [6] = system: KLE cells; test: Cell viability assay (CTG, 72 h) KLE; assay type: cell-based; settings: Homo sapiens, KLE, 72 h, 3-day compound treatment
# Description: as §1
# T1 sequence (P28347 whole entry, the tested form may be a part): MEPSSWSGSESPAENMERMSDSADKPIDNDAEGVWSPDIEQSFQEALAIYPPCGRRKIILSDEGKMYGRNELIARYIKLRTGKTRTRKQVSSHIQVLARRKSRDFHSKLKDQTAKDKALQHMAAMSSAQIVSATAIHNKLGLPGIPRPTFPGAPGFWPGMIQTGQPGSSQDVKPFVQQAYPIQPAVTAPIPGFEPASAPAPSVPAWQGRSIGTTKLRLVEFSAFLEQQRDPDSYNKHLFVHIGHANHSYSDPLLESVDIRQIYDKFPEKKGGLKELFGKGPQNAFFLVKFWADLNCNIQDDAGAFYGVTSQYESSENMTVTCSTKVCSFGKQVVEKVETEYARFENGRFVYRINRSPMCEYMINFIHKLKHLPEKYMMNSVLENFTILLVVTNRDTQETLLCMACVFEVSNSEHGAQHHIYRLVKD
# T1 sequence (Q96SW2 whole entry, the tested form may be a part): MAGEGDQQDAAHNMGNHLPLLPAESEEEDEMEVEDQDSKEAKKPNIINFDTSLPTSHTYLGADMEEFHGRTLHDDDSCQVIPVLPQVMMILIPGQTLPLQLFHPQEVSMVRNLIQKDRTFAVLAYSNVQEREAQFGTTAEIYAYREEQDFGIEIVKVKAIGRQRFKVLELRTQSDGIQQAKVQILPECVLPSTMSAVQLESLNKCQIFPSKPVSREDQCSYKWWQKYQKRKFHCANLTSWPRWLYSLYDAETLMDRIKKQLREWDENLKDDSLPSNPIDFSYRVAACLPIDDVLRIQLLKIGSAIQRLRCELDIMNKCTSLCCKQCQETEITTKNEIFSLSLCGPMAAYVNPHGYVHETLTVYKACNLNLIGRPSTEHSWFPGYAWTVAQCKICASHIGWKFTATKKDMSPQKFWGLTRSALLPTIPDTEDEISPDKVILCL
# T1 sequence (Q16531 2-1140 partner limits assumed): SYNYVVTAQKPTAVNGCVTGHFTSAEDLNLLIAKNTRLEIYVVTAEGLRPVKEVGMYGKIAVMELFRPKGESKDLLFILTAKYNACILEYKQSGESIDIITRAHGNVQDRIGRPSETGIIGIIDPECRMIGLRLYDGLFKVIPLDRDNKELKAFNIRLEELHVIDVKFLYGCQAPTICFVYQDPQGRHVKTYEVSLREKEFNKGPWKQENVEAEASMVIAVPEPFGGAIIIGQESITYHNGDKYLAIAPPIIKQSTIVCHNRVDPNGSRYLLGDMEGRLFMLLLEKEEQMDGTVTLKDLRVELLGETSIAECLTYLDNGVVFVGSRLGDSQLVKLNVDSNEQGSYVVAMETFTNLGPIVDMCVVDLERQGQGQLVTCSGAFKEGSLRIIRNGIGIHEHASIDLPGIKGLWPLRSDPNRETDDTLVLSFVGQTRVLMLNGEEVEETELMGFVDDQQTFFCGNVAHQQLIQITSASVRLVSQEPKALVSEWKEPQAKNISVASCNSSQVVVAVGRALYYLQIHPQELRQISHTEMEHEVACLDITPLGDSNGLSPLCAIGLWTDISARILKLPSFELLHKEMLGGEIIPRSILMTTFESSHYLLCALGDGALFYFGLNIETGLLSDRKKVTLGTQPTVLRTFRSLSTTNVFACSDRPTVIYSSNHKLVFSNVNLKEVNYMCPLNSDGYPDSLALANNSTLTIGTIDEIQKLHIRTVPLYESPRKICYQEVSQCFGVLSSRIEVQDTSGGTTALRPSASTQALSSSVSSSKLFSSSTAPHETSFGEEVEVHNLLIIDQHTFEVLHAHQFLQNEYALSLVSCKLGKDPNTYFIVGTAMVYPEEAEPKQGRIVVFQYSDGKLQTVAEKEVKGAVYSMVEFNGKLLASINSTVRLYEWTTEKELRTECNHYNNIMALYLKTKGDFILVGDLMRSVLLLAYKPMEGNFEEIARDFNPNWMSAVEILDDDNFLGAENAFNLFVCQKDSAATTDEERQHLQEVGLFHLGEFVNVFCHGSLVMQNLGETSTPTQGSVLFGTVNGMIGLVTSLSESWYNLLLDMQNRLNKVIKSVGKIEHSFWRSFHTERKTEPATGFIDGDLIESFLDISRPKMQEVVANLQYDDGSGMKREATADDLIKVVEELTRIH
compound,measurement,setting,value
CNC(=O)c1cc2c(c(F)c1-c1c(Cl)c(F)cc3c1C[C@@](CN[C@H]1CC[C@H](C(=O)N4CCC(CC5CCN(C(=O)COc6ccc(N7CCC(=O)NC7=O)c(C)c6)CC5)CC4)CC1)(c1ccccc1)O3)[C@@H](O)[C@@H](C)C2 [KG-FP-003],Proteome-wide selectivity,[1],selective downregulation of TEAD1 and TEAD4
same,Target degradation by immunoblot,"[2]; 10 nM, 6 h, TEAD1-mNeonGreen NCI-H1299 cells",significant target degradation
same,Time to near-complete depletion of TEAD1,"[2]; 100 nM, TEAD1-mNeonGreen fusion NCI-H1299 cells",≤ 2 h
same,IC50,"[3]; 72 h, 3-day antiproliferation, Figure 3C, read-out: IC50 (nM ± SD), MSTO-211H",47 ± 5 nM
same,IC50,"[3]; wild-type, Figure 3D, read-out: MSTO-211H: WT IC50",47 ± 5 nM
same,IC50,[4],27 ± 7 nM
same,IC50,[5],202 ± 14 nM
same,IC50,[6],59 ± 34 nM
